Assay results published in patent publication EP1439394A1, “Method and apparatus for etablishing ADME profiles in the early stage of develloppment of active substances” (priority 2002, dated 2004).

Assays:
HSA = HSA (Homo sapiens, UniProt P02768); conditions: standard ligands immobilised on the array; protein not named, HSA per Example 2 / Abb. 2
Excerpt: (§1) Wird SPR als Detektionsmethode eingesetzt, ist es vorteilhaft, zunächst eine Messung des Microarrays ohne Lösung (Luftmessung) durchzuführen und danach eine Messung des Microarrays mit der Pufferlösung durchzuführen, in der anschließend das ADME relevante Biomolekül gelöst wird (Puffermessung). Anschliessend wird die Pufferlösung gegen eine Lösung des ADME relevanten Biomoleküls in demselben Puffer ausgetauscht und nochmals gemessen (Proteinmessung). Die Puffermessungen und die Proteinmessungen werden mittels der Luftmessung normiert und anschließend wird die Differenz zwischen den beiden Minima der Proteinmessung und der Puffermessung ermittelt.
(§2) Die so ermittelte Verschiebung (in nm) zwischen den beiden (ggf. normierten) Messungen ist ein Maß für die Bindungsstärke zwischen den immobilisierten Liganden und dem ADME relevanten Biomolekül (s. Beispiel 1).
Anschließend wurde der Chip je dreifach in 1. Methanol/1%TFA, 2. H2O/0,1% TFA und 3. H2O/0,02M HOAc gewaschen sowie unter Stickstoffstrom getrocknet.
Alle Verbindungen weisen eine Carboxy-Funktionalität auf, die mit einem Amin umgesetzt wurden, das endständig eine Thiolgruppe zur Anbindung an die Maleimid-Kopfgruppe des Ankers trägt.
Die Wirkstoffvorstufen, die so auf die Oberfläche gebracht werden, sind in einer 40 µM Lösung aus 0,2 M Phosphatpuffer (Pi), 5 mM EDTA und 20% (v/v) EG, pH 7.0, gelöst. Das Pinning Tool setzt ca. 10 nl pro Spot ab, so daß in jedem Spot ein hoher Überschuß des Wirkstoffvorstufen-Tag Konjugates gegenüber der oberflächengebundenen Maleimid-Gruppe gewährleistet wird und somit eine vollständige Belegung der Maleimid-Gruppen erreicht werden kann. In den freien Bereichen wurden die Maleimid-Gruppen anschließend durch Inkubation des Chips in 0,2 M Pi, pH 7.0, 10mM Mesh für 30 min abgesättigt. Danach wurde je dreimal mit 1. H2O/0,02M HOAc, 2. MeOH/H2O und 3. 2-Propanol gewaschen sowie unter Stickstoffstrom getrocknet.
Die Verschiebung der Wellenlänge wurde nach 120 min aufgezeichnet. Durch die eindeutige Zuordnung der (x,y)-Koordinate zu einer bestimmten Verbindung ist diese eindeutig identifizierbar. Wirkstoffvorstufen mit hohen Verschiebungswerten sind kritisch im Hinblick auf die weitere Wirkstoffentwicklung.
Das Festphasenscreening wurde durchgeführt wie in Beispiel 1 beschrieben.

CYP3A4 = CYP3A4 (Homo sapiens, UniProt P08684); conditions: standard ligands immobilised on the array; CYP3A4 per Example 3 / Abb. 3
Sequence of CYP3A4 (P08684 whole entry): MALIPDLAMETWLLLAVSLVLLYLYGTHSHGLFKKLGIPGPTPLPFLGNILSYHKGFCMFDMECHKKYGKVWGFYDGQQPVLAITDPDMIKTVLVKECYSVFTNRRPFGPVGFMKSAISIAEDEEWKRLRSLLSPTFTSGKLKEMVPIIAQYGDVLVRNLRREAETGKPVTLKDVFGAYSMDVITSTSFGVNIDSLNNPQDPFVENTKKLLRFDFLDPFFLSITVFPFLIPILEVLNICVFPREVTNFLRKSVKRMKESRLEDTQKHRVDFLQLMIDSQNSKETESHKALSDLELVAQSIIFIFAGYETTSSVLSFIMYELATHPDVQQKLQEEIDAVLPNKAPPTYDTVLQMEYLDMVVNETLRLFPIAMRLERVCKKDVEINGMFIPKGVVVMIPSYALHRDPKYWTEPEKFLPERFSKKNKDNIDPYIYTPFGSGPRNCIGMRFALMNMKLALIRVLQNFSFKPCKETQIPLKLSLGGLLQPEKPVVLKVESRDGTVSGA
Excerpt: as §1, §2
Die Verschiebung der Wellenlänge wurde nach 120 min aufgezeichnet. Durch die eindeutige Zuordnung der (x,y)-Koordinate zu einer bestimmten Verbindung ist diese eindeutig identifizierbar.
3 gezeigten Standardliganden und deren Festphasenscreening gegen CYP3A4 eine Klassifizierung in sehr schwach (<1,6 nm), schwach (1,6-3,2 nm), mittel (3,2-4,8 nm), stark (4,8-6,4 nm) und sehr stark (>6,4 nm) durchgeführt. Anhand der bekannten Metabolismuseigenschaften der Standardliganden ist eine Zuordnung dieser ADME Eigenschaft für nicht bekannte Wirkstoffvorstufen möglich.

Sequence of HSA (P02768 25-609): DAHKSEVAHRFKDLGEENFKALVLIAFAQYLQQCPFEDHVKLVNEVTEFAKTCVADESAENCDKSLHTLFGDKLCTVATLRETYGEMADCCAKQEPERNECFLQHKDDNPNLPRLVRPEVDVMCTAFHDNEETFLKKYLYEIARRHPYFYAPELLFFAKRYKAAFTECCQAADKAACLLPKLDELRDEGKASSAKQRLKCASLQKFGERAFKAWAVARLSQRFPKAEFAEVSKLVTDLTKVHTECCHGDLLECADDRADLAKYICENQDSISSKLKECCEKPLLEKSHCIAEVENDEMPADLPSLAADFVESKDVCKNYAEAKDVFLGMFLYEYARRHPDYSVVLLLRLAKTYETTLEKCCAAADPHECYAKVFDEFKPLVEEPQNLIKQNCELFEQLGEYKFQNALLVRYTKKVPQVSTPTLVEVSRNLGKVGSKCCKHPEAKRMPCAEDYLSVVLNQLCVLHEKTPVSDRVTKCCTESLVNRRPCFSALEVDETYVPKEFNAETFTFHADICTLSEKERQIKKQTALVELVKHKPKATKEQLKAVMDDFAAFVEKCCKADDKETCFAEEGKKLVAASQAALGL

Compound | Klassifizierung der Standardliganden für die Bestimmung von Distributionsparametern (HSA) | Klassifizierung der Standardliganden für die Bestimmung von Metabolismusparametern (CYP3A4)
C=C[C@H]1C[N@@]2CC[C@H]1C[C@@H]2[C@@H](O)c1ccnc2ccc(OC)cc12 [Chinidin] | schwach (schwach (0,7-1,4 nm)) | –
C=C[C@H]1C[N@@]2CC[C@H]1C[C@H]2[C@H](O)c1ccnc2ccc(OC)cc12 [Chinin] | schwach (schwach (0,7-1,4 nm)) | –
CNCCCN1c2ccccc2CCc2ccccc21 [Desimpramin] | mittel (mittel (1,4-2,1 nm)) | schwach (schwach (1,6-3,2 nm))
CNCCC=C1c2ccccc2CCc2ccccc21 [Nortriptylin] | stark (stark (2,1-2,8 nm)) | schwach (schwach (1,6-3,2 nm))
CC(=O)[C@H]1CC[C@H]2[C@@H]3CCC4=CC(=O)CC[C@]4(C)[C@H]3CC[C@]12C [Progesteron] | – | sehr stark (sehr stark (>6,4 nm))
